Results reported in BindingDB's records for PubMed 38340508 (Biomedical Research Foundation of the Academy of Athens).

Experiment: Inhibition of MYC in chicken embryonic fibroblasts assessed as reduction in transformed cell foci with repeated addition of compounds every second day and measured after 1 to 3 weeks by crystal violet staining based analysis

IC50: 3000 nM
Compound: Cc1cc(N2CCCCC2)nc2ccc(Cc3ccc4nc(N5CCCCC5)cc(C)c4c3)cc12
